IC50 data for 27 compounds are collected here from BindingDB's records for doi:10.1074/jbc.M606873200 (Parke-Davis Pharmaceutical Research, 1997).

The IC50 is the concentration at which inhibition is half-maximal.

Holding throughout (assay): Kinase Inhibition Assay
The target of test [1] is Platelet-derived growth factor receptor alpha/beta (Homo sapiens, UniProt P09619+P16234). As to the method:
(§1) The kinase activity is the enzyme activity that catalyzes the transfer of the terminal phosphate from [gamma-32P] ATP to the poly (E: Y) substrate. Nonspecific activity was defined as radioactivity retained on the filters following incubation of samples without enzyme. Specific activity was determined as total activity minus nonspecific activity.

Test [2] has as its target Fibroblast growth factor receptor 1 (Homo sapiens, UniProt P11362). As for the experimental part:
as §1

Test [3] deals with Platelet-derived growth factor receptor beta (Homo sapiens, UniProt P09619). As for the experimental part: as §1
Chain of Platelet-derived growth factor receptor beta (P09619 whole entry): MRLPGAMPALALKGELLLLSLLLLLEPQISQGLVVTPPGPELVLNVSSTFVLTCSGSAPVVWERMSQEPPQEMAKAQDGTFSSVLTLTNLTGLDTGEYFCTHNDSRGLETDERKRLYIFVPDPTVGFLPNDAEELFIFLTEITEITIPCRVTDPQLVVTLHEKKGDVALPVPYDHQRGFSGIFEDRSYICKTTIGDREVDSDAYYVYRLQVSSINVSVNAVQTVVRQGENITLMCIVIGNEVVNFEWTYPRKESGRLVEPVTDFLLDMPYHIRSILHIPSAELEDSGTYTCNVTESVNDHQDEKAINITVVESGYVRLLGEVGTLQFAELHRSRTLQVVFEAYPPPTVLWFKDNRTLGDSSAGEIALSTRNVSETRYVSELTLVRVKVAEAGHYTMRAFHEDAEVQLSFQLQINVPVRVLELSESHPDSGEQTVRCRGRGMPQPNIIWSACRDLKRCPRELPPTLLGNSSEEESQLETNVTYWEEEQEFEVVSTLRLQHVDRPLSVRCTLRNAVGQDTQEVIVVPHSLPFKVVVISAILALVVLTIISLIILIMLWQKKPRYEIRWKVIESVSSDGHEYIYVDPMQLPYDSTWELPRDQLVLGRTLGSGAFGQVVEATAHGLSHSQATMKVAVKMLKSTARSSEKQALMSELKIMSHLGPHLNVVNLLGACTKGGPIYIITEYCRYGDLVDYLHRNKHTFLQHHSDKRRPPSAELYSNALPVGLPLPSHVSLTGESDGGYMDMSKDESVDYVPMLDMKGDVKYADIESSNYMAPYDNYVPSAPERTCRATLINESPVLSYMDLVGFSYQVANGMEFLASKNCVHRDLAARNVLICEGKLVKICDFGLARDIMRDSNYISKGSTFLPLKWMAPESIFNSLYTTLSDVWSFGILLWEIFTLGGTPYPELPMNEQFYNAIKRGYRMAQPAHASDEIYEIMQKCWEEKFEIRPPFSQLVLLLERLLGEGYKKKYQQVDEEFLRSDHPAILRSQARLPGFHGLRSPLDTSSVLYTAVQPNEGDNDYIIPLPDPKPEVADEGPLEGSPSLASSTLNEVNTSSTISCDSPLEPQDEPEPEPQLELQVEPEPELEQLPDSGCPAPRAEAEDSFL
Test [4] has as its target Proto-oncogene tyrosine-protein kinase Src (Homo sapiens, UniProt P12931). As to the method:
as §1

In test [5] the target is Cyclin-dependent kinase 4 (Homo sapiens, UniProt P11802). As to the method: as §1
Chain of Cyclin-dependent kinase 4 (P11802 whole entry): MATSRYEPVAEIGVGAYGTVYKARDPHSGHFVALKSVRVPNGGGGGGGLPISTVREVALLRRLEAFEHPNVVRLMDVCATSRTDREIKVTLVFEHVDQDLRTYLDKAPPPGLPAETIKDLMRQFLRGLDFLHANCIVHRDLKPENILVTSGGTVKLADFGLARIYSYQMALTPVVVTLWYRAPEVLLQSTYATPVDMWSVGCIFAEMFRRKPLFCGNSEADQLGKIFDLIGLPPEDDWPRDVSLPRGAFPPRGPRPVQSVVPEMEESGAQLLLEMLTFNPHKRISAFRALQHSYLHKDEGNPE
Test [6] concerns the target Mitogen-activated protein kinase 1/3 (Homo sapiens, UniProt P27361+P28482). As to the method:
as §1

In another test the target is Protein kinase C (PKC). As to the method: as §1

Chain of Proto-oncogene tyrosine-protein kinase Src (P12931 2-536 limits assumed): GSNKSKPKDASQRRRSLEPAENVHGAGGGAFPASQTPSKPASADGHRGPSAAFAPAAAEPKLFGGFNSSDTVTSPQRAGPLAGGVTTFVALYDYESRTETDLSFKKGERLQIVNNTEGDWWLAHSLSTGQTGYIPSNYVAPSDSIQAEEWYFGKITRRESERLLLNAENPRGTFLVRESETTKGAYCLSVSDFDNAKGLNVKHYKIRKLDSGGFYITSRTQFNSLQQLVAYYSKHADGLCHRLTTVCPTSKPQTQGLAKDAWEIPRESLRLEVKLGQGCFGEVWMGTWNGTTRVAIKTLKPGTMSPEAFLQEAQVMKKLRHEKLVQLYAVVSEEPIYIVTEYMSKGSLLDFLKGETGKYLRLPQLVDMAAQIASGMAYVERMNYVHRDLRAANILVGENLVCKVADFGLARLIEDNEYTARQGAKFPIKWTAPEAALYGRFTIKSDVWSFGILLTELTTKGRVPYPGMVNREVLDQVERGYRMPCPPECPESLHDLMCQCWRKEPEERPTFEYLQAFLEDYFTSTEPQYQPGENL
Chain of Fibroblast growth factor receptor 1 (P11362 whole entry): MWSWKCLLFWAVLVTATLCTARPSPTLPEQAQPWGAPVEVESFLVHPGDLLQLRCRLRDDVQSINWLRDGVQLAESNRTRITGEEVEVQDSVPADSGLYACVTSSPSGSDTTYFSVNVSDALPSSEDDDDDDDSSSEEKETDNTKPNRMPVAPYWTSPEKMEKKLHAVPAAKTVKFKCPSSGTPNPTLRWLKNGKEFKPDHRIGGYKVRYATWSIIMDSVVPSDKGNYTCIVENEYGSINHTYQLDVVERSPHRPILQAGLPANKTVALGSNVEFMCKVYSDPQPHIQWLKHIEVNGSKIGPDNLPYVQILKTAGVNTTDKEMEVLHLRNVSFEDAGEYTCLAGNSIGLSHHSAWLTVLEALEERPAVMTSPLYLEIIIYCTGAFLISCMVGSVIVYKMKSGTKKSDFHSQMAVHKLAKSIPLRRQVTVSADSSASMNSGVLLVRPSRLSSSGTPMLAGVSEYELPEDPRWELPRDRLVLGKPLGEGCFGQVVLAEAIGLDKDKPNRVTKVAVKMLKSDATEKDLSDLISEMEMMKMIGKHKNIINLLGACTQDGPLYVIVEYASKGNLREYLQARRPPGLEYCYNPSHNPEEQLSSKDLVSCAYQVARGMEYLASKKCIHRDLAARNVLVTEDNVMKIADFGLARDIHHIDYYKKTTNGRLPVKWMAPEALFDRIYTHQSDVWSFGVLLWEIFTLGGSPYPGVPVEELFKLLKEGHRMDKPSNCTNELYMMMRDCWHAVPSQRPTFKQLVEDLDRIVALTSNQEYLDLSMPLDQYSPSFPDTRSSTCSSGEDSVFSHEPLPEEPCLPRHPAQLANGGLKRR
Chain of Mitogen-activated protein kinase 1/3 (P28482 whole entry): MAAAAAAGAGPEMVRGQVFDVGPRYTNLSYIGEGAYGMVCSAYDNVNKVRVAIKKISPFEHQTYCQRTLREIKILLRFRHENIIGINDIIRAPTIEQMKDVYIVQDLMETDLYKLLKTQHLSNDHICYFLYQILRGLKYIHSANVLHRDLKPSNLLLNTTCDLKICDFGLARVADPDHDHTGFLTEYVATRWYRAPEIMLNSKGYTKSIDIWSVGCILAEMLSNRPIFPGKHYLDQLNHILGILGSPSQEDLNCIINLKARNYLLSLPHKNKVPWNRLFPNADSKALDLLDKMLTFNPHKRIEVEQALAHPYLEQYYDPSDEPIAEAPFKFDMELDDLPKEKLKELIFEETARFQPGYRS
Chain of Mitogen-activated protein kinase 1/3 (P27361 whole entry): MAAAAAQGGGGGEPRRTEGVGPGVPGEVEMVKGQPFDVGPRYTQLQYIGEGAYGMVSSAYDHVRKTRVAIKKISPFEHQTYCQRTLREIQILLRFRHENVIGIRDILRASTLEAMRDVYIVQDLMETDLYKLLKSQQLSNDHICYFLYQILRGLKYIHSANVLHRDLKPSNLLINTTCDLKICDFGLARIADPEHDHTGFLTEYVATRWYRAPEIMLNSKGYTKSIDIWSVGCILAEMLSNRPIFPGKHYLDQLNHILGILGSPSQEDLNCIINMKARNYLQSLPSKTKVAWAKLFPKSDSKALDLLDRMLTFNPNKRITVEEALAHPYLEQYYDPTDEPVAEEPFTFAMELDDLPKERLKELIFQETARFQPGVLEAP

As for `CC(C)(C)NC(=O)Nc1nc2nc(N)ncc2cc1-c1cc(F)cc(F)c1` [1-[2-amino-6-(3,5-difluorophenyl)pyrido[2,3-d]pyrimidin-7-yl]-3-tert-butylurea], the IC50 is 8.97 µM in test [1]; 1.1 µM in test [2]; 8.97 µM in test [3] (pH 7.4, 25 °C); 1.35 µM in test [4].

Consider `CC(C)(C)NC(=O)Nc1nc2nc(N)ncc2cc1-c1c(F)cccc1F` [1-[2-amino-6-(2,6-difluorophenyl)pyrido[2,3-d]pyrimidin-7-yl]-3-tert-butylurea], for which the IC50 in test [1] turned out to be 1.67 µM; in test [2] it was 0.11 µM; in test [3] (pH 7.4, 25 °C), 1.67 µM; in test [4], 0.8 µM.

For the compound `Cc1cccc(-c2cc3cnc(N)nc3nc2NC(=O)NC(C)(C)C)c1C` [1-[2-amino-6-(2,3-dimethylphenyl)pyrido[2,3-d]pyrimidin-7-yl]-3-tert-butylurea], the half-maximal inhibitory concentration (IC50) in test [1] stood at 6.05 µM; in test [3] (pH 7.4, 25 °C), 6.05 µM.

For the compound `Cc1cc(C)cc(-c2cc3cnc(N)nc3nc2NC(=O)NC(C)(C)C)c1` [1-[2-amino-6-(3,5-dimethylphenyl)pyrido[2,3-d]pyrimidin-7-yl]-3-tert-butylurea], the IC50 in test [1] is 52.9 µM; in test [2], 1.13 µM; in test [3] (pH 7.4, 25 °C), 52.9 µM; in test [4], more than 50 µM.

Consider `Cc1cc(C)c(-c2cc3cnc(N)nc3nc2NC(=O)NC(C)(C)C)c(C)c1` [1-[2-amino-6-(2,4,6-trimethylphenyl)pyrido[2,3-d]pyrimidin-7-yl]-3-tert-butylurea], for which the IC50 came to 1.47 µM in test [1]; 0.27 µM in test [2]; 1.47 µM in test [3] (pH 7.4, 25 °C); 0.36 µM in test [4].

For the compound `Cc1c(C)c(C)c(-c2cc3cnc(N)nc3nc2NC(=O)NC(C)(C)C)c(C)c1C` [1-[2-amino-6-(2,3,4,5,6-pentamethylphenyl)pyrido[2,3-d]pyrimidin-7-yl]-3-tert-butylurea], the IC50 is more than 50 µM in test [1]; 1.62 µM in test [2]; more than 50 µM in test [3] (pH 7.4, 25 °C); more than 50 µM in test [4].

In the case of `COc1ccccc1-c1cc2cnc(N)nc2nc1NC(=O)NC(C)(C)C` [1-[2-amino-6-(2-methoxyphenyl)pyrido[2,3-d]pyrimidin-7-yl]-3-tert-butylurea], the IC50 came out at 4.48 µM in test [1]; 4.48 µM in test [3] (pH 7.4, 25 °C); 10.4 µM in test [4].

Turning to `CCOc1cc(OCC)cc(-c2cc3cnc(N)nc3nc2NC(=O)NC(C)(C)C)c1` [1-[2-amino-6-(3,5-diethoxyphenyl)pyrido[2,3-d]pyrimidin-7-yl]-3-tert-butylurea], the half-inhibitory concentration (IC50) in test [1] was more than 50 µM; in test [2], 1.65 µM; in test [3], more than 50 µM; in test [4] it was more than 50 µM.

Regarding `CN(C)c1cc(-c2cc3cnc(N)nc3nc2NC(=O)NC(C)(C)C)cc(N(C)C)c1`, the IC50 in test [1] was more than 50 µM; in test [2], 16 µM; in test [3] it was more than 50 µM; in test [4], more than 50 µM.

As to `CC(C)(C)NC(=O)Nc1nc2nc(N)ncc2cc1-c1c(Cl)cccc1Cl`, the IC50 in test [5] was more than 50 µM; in test [1], 1.25 µM; in test [3] (pH 7.4, 25 °C) it was 1.25 µM; in test [6] it was 7.1 µM.

On to `CC(C)(C)NC(=O)Nc1nc2nc(N)ncc2cc1-c1ccccc1` [1-{2-amino-6-phenylpyrido[2,3-d]pyrimidin-7-yl}-3-tert-butylurea], for which the IC50 was 13.2 µM in test [1]; 8 µM in test [2]; 13.2 µM in test [3] (pH 7.4, 25 °C); 19.3 µM in test [4].

Turning to `CC(C)(C)NC(=O)Nc1nc2nc(N)ncc2cc1-c1c(Br)cccc1Br` [1-[2-Amino-6-(2,6-dibromo-phenyl)-pyrido-[2,3-d]pyrimidin-7-yl]-3-tert-butyl-urea], the IC50 in test [1] was found to be 1.42 µM; in test [2], 0.29 µM; in test [3] (pH 7.4, 25 °C), 1.42 µM; in test [4], 0.21 µM.

As for `Cc1cc(C)c(C)c(-c2cc3cnc(N)nc3nc2NC(=O)NC(C)(C)C)c1C` [1-[2-amino-6-(2,3,5,6-tetramethylphenyl)pyrido[2,3-d]pyrimidin-7-yl]-3-tert-butylurea], the IC50 is more than 40 µM in test [5]; more than 50 µM in test [1]; more than 50 µM in test [3] (pH 7.4, 25 °C); more than 50 µM in test [6]; more than 50 µM on Protein kinase C (PKC).

For `COc1ccc(-c2cc3cnc(N)nc3nc2NC(=O)NC(C)(C)C)cc1` [1-[2-amino-6-(4-methoxyphenyl)pyrido[2,3-d]pyrimidin-7-yl]-3-tert-butylurea], the IC50 in test [1] was 2.89 µM; in test [2] it was 3.97 µM; in test [3], 2.89 µM; in test [4], more than 50 µM.

`CCOc1cccc(-c2cc3cnc(N)nc3nc2NC(=O)NC(C)(C)C)c1` [1-[2-amino-6-(3-ethoxyphenyl)pyrido[2,3-d]pyrimidin-7-yl]-3-tert-butylurea]: the half-maximal inhibitory concentration (IC50) is 23 µM in test [1], 0.67 µM in test [2], 23 µM in test [3] and more than 50 µM in test [4].

Regarding `CC(C)(C)NC(=O)Nc1nc2nc(N)ncc2cc1-c1c(Cl)ccc(Cl)c1Cl` [1-[2-amino-6-(2,3,6-trichlorophenyl)pyrido[2,3-d]pyrimidin-7-yl]-3-tert-butylurea], the IC50 in test [1] was found to be 2.96 µM; in test [2], 0.11 µM; in test [3] (pH 7.4, 25 °C), 2.96 µM.

For `COc1cccc(-c2cc3cnc(N)nc3nc2NC(=O)NC(C)(C)C)c1` [1-[2-amino-6-(3-methoxyphenyl)pyrido[2,3-d]pyrimidin-7-yl]-3-tert-butylurea], the IC50 in test [1] was 22.9 µM; in test [2], 0.36 µM; in test [3] it was 22.9 µM.

With `Cc1ccc(-c2cc3cnc(N)nc3nc2NC(=O)NC(C)(C)C)cc1` [1-[2-amino-6-(4-methylphenyl)pyrido[2,3-d]pyrimidin-7-yl]-3-tert-butylurea], the IC50 in test [1] worked out at 6.31 µM; in test [2] it was 1.67 µM; in test [3] (pH 7.4, 25 °C), 6.31 µM; in test [4] it was 17.5 µM.

On to `CCc1cc(CC)cc(-c2cc3cnc(N)nc3nc2NC(=O)NC(C)(C)C)c1` [1-[2-amino-6-(3,5-diethylphenyl)pyrido[2,3-d]pyrimidin-7-yl]-3-tert-butylurea], for which the IC50 was more than 50 µM in test [1]; 7.76 µM in test [2]; more than 50 µM in test [3] (pH 7.4, 25 °C); more than 50 µM in test [4].

`CC(C)(C)NC(=O)Nc1nc2nc(N)ncc2cc1-c1cccc(Cl)c1Cl` [1-[2-amino-6-(2,3-dichlorophenyl)pyrido[2,3-d]pyrimidin-7-yl]-3-tert-butylurea]: the IC50 in test [1] was 2.26 µM; in test [2] it was 0.16 µM; in test [3] (pH 7.4, 25 °C) it was 2.26 µM; in test [4], 4.41 µM.

Consider `COc1ccc(-c2cc3cnc(N)nc3nc2NC(=O)NC(C)(C)C)cc1OC` [1-[2-amino-6-(3,4-dimethoxyphenyl)pyrido[2,3-d]pyrimidin-7-yl]-3-tert-butylurea], for which the half-maximal inhibitory concentration (IC50) in test [1] was more than 50 µM; in test [2], 20.2 µM; in test [3], more than 50 µM; in test [4], more than 50 µM.

On to `CCN(CC)CCOc1ccc(C)c(-c2cc3cnc(N)nc3nc2NC(=O)NC(C)(C)C)c1C` [1-(2-amino-6-{3-[2-(diethylamino)ethoxy]-2,6-dimethylphenyl}pyrido[2,3-d]pyrimidin-7-yl)-3-tert-butylurea], for which the IC50 was determined as 11.8 µM in test [1]; 0.89 µM in test [2]; 11.8 µM in test [3] (pH 7.4, 25 °C); 1.65 µM in test [4].

Take `Cc1ccccc1-c1cc2cnc(N)nc2nc1NC(=O)NC(C)(C)C` [1-[2-amino-6-(2-methylphenyl)pyrido[2,3-d]pyrimidin-7-yl]-3-tert-butylurea]: the IC50 is 1.05 µM in test [1] and 1.05 µM in test [3] (pH 7.4, 25 °C).

`CC(C)(C)NC(=O)Nc1nc2nc(N)ncc2cc1-c1c(Cl)cccc1Br` [1-[2-amino-6-(2-bromo-6-chlorophenyl)pyrido[2,3-d]pyrimidin-7-yl]-3-tert-butylurea]: the IC50 in test [1] is 0.62 µM; in test [3] (pH 7.4, 25 °C) it was 0.62 µM; in test [4] it was 0.21 µM.

Regarding `CCc1ccccc1-c1cc2cnc(N)nc2nc1NC(=O)NC(C)(C)C` [1-[2-amino-6-(2-ethylphenyl)pyrido[2,3-d]pyrimidin-7-yl]-3-tert-butylurea], the IC50 in test [1] worked out at 4.48 µM; in test [2] it was 11.2 µM; in test [3] (pH 7.4, 25 °C), 4.48 µM; in test [4], 10.4 µM.

For `CC(C)(C)NC(=O)Nc1nc2nc(N)ncc2cc1-c1cc(C(F)(F)F)cc(C(F)(F)F)c1` [1-{2-amino-6-[3,5-bis(trifluoromethyl)phenyl]pyrido[2,3-d]pyrimidin-7-yl}-3-tert-butylurea], the IC50 in test [1] is more than 50 µM; in test [2], more than 50 µM; in test [3] (pH 7.4, 25 °C), more than 50 µM; in test [4], more than 50 µM.

`COc1cc(OC)cc(-c2cc3cnc(N)nc3nc2NC(=O)NC(C)(C)C)c1` [6-arylpyrido[2,3-d]pyrimidine deriv. 25]: the IC50 was more than 40 µM in test [5] and 0.06 µM in test [2].
